Measured values published in ChEMBL document CHEMBL1140370, “Molecular modeling and molecular dynamics simulation of the human A2B adenosine receptor. The study of the possible binding modes of the A2B receptor antagonists” (J Med Chem, 2005).

Target: T1, Adenosine receptor A2b (Homo sapiens, UniProt P29275)
T1 sequence (P29275 whole entry): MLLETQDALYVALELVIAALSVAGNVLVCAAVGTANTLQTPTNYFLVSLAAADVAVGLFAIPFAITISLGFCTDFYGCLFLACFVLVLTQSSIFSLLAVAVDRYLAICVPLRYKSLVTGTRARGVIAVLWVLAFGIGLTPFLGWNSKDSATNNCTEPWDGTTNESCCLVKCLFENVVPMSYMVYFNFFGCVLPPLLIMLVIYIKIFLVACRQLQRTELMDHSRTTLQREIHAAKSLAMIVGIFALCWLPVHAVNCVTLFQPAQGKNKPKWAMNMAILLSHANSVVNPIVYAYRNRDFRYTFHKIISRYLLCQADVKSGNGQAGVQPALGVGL
Test: Antagonist activity against human Adenosine A2b receptor
Format: functional

Ki [µM] | SMILES
0.018 | CCCn1c(=O)c2[nH]c(-c3cc(OCC(=O)O)no3)nc2n(CCC)c1=O
0.0048 | CCCn1c(=O)c2[nH]c(-c3ccc(OCC(=O)Nc4ccc(F)cc4)nc3)nc2n(CCC)c1=O
